Patent US11045473B2, “Compositions and methods for therapy of prostate cancer using drug combinations to target polyamine biosynthesis and related pathways” (Health Research, Inc., priority 2015, dated 2021)
“Also recorded” adds a separate entry of the source.

Key:
LNCaP = assay: Proliferation / IC50 by trypan blue cell counts, LNCaP; assay type: cell-based, human; details: for effect on cell growth: 8 and 12 days; for IC50: Homo sapiens
Description: (§1) A transition state analog inhibitor of MTAP, Methylthio-DaDMe-Immucillin-A (MTDIA) was previously described and shown to be effective following a 6 or 12 day treatment at ˜10 and 100 nM MTDIA when 20 uM MTA was added to the media in both lung adenocarcinoma cell lines and head and neck squamous carcinoma cell lines, respectively [Basu I, et al. J Biol Chem. 2007; 282:21477-21486; Basu I, et al. J Biol Chem. 2011; 286:4902-491]. 32]. We synthesized MTDIA and the analytical data on the synthesized compound are shown in FIGS. 8A and 8B with the scheme used for synthesis shown in FIG. 6. […] In all three cell lines, the proliferation curves after 12 days of treatment show an IC50 of MTDIA>1 mM in the absence of MTA (FIG. 5B), but in the 10-100 nM range with the addition of 10 or 20 μM MTA. […] Nanomolar range IC50 values are highlighted.
(§2) IC50—The MTAP inhibitor (3R,4S)-1-[(9-Deaza-adenin-9-yl)methyl]-3-hydroxy-4-(methylthiomethyl)-pyrrolidine, or MT-DADMe-Immucillin-A (MTDIA) was synthesized following the synthesis scheme shown in FIG. 6 and based on a known approach. Cells were seeded at 125,000 cells/well (PC-3, DU145, LNCaP) in triplicate in 2 mLs of RPMI medium supplemented with 10% fetal bovine serum, and 1% penicillin streptomycin. After 24 hours the MTDIA and/or MTA was added at the indicated concentrations. Both medium and drug were refreshed every 48 hours. Every 96 hours the cells were trypsinized, ˜2% of cells were removed and counted by trypan blue exclusion and the rest were replated into a larger vessel.

DU145 = assay: Proliferation / IC50 by trypan blue cell counts, DU145; assay type: cell-based, human; details: for effect on cell growth: 8 and 12 days; for IC50: Homo sapiens
Description: as §1, §2

LNCaP xenograft = LNCaP xenograft growth in nude mice, MTDIA in the drinking water; assay type: in vivo
Description: Human cell line xenografts with pharmacological treatment—1×10^6 wild type LNCaP cells were subcutaneously injected onto the flank of pelleted nude mice. At time of injection animals were randomly assigned to one of the following three groups; control, 9 or 21 mg/kg MTDIA in the drinking water with 20 mice in each group. Tumor measurements were assessed and recorded twice a week. Animals were sacrificed once tumors reached 2 cm3 or at the end point of the experiment (91 days).

MTAP [1] = assay: Western blot of MTAP protein expression in FaDu; assay type: cell-based, human; details: 4 day IC25 and IC50 of MTDIA, presence or absence of MTA
Description: (§3) FIG. 9. (A) Proliferation curves for LNCaP, DU145 and PC3 treated with MTDIA in the absence or presence of 10 or 20 uM MTA, for 4 and (B) 8 days. […] (C) Western blot analysis of FaDu, LNCaP, and DU145 cells after indicated treatments of MTA (0, 10, or 20 uM) or the respective 4 day IC25 and IC50 dose of MTDIA for each cell line plus or minus MTA immunoblotted with antibodies against MTAP, SMS, and SRM, with B-actin as a loading control. Western blot images are representative of biological triplicates.
(§4) Western Blotting—Whole cell extracts were prepared in RIPA buffer (150 mM NaCl, 1.0% NP-40, 0.5% deoxycholate, 0.1% SDS, 50 mM Tris-HCl pH 8.0, 5 mM EDTA and 0.5 mM PMSF) supplemented with 1× proteinase inhibitor. Protein concentrations were determined by Bradford Assay (Thermo Scientific, Cat #1856209). […] MTAP for Westerns was purchased from Proteintech™ (Cat #11475-1-AP. SRM and SMS were purchased from Abcam® (Cat #ab111884 and ab156879). B-actin antibody for Westerns was purchased from Sigma-Aldrich (Cat #A5441) and GAPDH was from Santa Cruz Biotecnology Inc. (Cat #sc-25778). Films were scanned using the Biorad ChemiDoc XRS, and band intensities were calculated using Image Lab™. Intensity values were normalized to B-actin loading control band intensities and made relative to control treatment conditions.

MTAP [2] = assay: Western blot of MTAP protein expression in DU145; assay type: cell-based, human; details: DU145, 4 day IC25 and IC50 of MTDIA, presence or absence of MTA
Description: as §3, §4

spermine synthase = assay: Western blot of spermine synthase in LNCaP; assay type: cell-based, human; details: treatment with MTDIA
Description: FIG. 9. (A) Proliferation curves for LNCaP, DU145 and PC3 treated with MTDIA in the absence or presence of 10 or 20 uM MTA, for 4 and (B) 8 days. Results of biological triplicates are shown with absolute IC50s indicated for each condition. (C) Western blot analysis of FaDu, LNCaP, and DU145 cells after indicated treatments of MTA (0, 10, or 20 uM) or the respective 4 day IC25 and IC50 dose of MTDIA for each cell line plus or minus MTA immunoblotted with antibodies against MTAP, SMS, and SRM, with B-actin as a loading control. Western blot images are representative of biological triplicates. Band intensity values normalized to B-actin relative to control conditions are indicated below the respective band.
Western Blotting—Whole cell extracts were prepared in RIPA buffer (150 mM NaCl, 1.0% NP-40, 0.5% deoxycholate, 0.1% SDS, 50 mM Tris-HCl pH 8.0, 5 mM EDTA and 0.5 mM PMSF) supplemented with 1× proteinase inhibitor. Protein concentrations were determined by Bradford Assay (Thermo Scientific, Cat #1856209). Samples were resolved on polyacrylamide gels and transferred onto PVDF membranes (Biorad, Cat #162-0177). Blots were incubated with primary antibodies overnight at 4° and with secondaries for 1.5 hours at room temperature. Signals were visualized using Pierce ECL western blotting substrate (Thermo Scientific, Cat #32209) and exposed to film. […]

[3] = test system: lung adenocarcinoma cell lines; details: 6 day treatment, 20 uM MTA added to the media; cited from earlier work
[4] = test system: head and neck squamous carcinoma cell lines; details: 12 day treatment, 20 uM MTA added to the media; cited from earlier work

For CSC[C@H]1CN(Cc2c[nH]c3c(N)ncnc23)C[C@@H]1O [MTDIA, (3R,4S)-1-[(9-Deaza-adenin-9-yl)methyl]-3-hydroxy-4-(methylthiomethyl)-pyrrolidine], the “effect on cell growth” value (LNCaP; 100 nM MTDIA, with 20 μM MTA) was “dramatic effect on cell growth”, the “effect on cell growth” value (LNCaP; 100 nM MTDIA, without MTA) was “little to no effect” and the effect on growth (LNCaP; 100 nM MTDIA, 4 days, with or without 20 μM MTA) was “limited effects on growth”. The blocking cell growth (LNCaP; 6 days, low concentrations of MTDIA) was “no effect at blocking cell growth”, the IC50 (LNCaP; 96 h, 4 days, 0 μM MTA) was greater than 1000 µM and the IC50 (LNCaP; 96 h, 4 days, 10 μM MTA) was greater than 1000 µM. It also gave an IC50 (LNCaP; 96 h, 4 days, 20 μM MTA) of 200 µM, an IC50 (LNCaP; 192 h, 8 days, 0 μM MTA) greater than 1000 µM and an IC50 (LNCaP; 192 h, 8 days, 10 μM MTA) of 1 µM. For the same compound, the IC50 (LNCaP; 192 h, 8 days, 20 μM MTA) was 0.085 µM, the IC50 (LNCaP; 288 h, 12 days, 0 μM MTA) was greater than 1000 µM and the IC50 (LNCaP; 288 h, 12 days, 10 μM MTA) was 0.011 µM. The IC50 (LNCaP; 288 h, 12 days, 20 μM MTA) was 0.014 µM, the IC50 (LNCaP; 288 h, 12 days, with 10 or 20 μM MTA) was 0.01 to 0.1 µM and the “effect on cell growth” value (DU145; DU145, 100 nM MTDIA, with 20 μM MTA) was “dramatic effect on cell growth”. The “effect on cell growth” value (DU145; DU145, 100 nM MTDIA, without MTA) was “little to no effect”, the effect on growth (DU145; DU145, 100 nM MTDIA, 4 days, with or without 20 μM MTA) was “limited effects on growth” and the blocking cell growth (DU145; DU145, 6 days, low concentrations of MTDIA) was “no effect at blocking cell growth”. For the same compound, the IC50 (DU145; DU-145, 96 h, DU145, 4 days, 0 μM MTA) was greater than 1000 µM, the IC50 (DU145; DU-145, 96 h, DU145, 4 days, 10 μM MTA) was greater than 1000 µM and the IC50 (DU145; DU-145, 96 h, DU145, 4 days, 20 μM MTA) was greater than 1000 µM. The IC50 (DU145; DU-145, 192 h, DU145, 8 days, 0 μM MTA) was greater than 1000 µM, the IC50 (DU145; DU-145, 192 h, DU145, 8 days, 10 μM MTA) was 0.022 µM and the IC50 (DU145; DU-145, 192 h, DU145, 8 days, 20 μM MTA) was 590 µM. For the same compound, the IC50 (DU145; DU-145, 288 h, DU145, 12 days, 0 μM MTA) was greater than 1000 µM, the IC50 (DU145; DU-145, 288 h, DU145, 12 days, 10 μM MTA) was 0.014 µM and the IC50 (DU145; DU-145, 288 h, DU145, 12 days, 20 μM MTA) was 0.01 µM. The IC50 (DU145; DU-145, 288 h, DU145, 12 days, with 10 or 20 μM MTA) was 0.01 to 0.1 µM, the xenograft growth (LNCaP xenograft; 21 mg/kg MTDIA daily in the drinking water, vs untreated control and 9 mg/kg dose) was “significant (p<0.001) block in xenograft growth; also recorded: dramatically blocked LNCaP xenograft growth” and the “xenograft growth after drug removal” value (LNCaP xenograft; 21 mg/kg group, drug removed at day 61, carried out to day 91) was “significant block in xenograft growth was maintained”. The MTAP expression (MTAP [1]) was “downregulates MTAP”, the MTAP expression (MTAP [2]) was “upregulate expression of MTAP” and the spermine synthase expression (spermine synthase) was “upregulated”. The effective concentration [3] was roughly 10 nM and the effective concentration [4] was roughly 100 nM.
